# In the NIST ThermoML archive (doi:10.1016/j.jct.2005.01.004):
# Numbers after ± are expanded uncertainties.
# Key:
# [1] = refractive index (Na D-line) (dimensionless); details: 298.15 K; 101.33 kPa; Liquid; Standard Abbe refractometry
# [2] = 298.15 K; 101.33 kPa; Liquid
structure (smiles),measurement,setting,value
CO [methanol],refractive index,[1],1.3264 ± 0.0007
same,mass density,[2],786.63 ± 0.61 kg/m3
